Patent US20100212031A1, “Method for improving efficiencies in livestock production” (priority 2002, published 2010)
Where “and” joins values, the source holds several entries; their conditions need not be identical. Equal values may be shown once. Marks after values point to notes of the source that are not given here.

Tests used:
[1] = Test 4 / Group 3 feedlot study: backfat by serial ultrasound, steers by leptin (ob) genotype and drug status; assay type: in vivo, cattle (steers of mixed breed); conditions: Drug group; for Backfat, mm d 1: 1st measure (1 days on feed); for Backfat, mm d 1 / Backfat, mm d 2 / Backfat, mm d 3: before drug; for Backfat, mm d 2: 2nd measure (60 days on feed); for Backfat, mm d 3: 3rd measure (104 days on feed); for Backfat, mm d 4: 4th measure (129 days on feed), after drug; for d to 10 mm (days needed to reach target backfat) / d to 12 mm (days needed to reach target backfat) / d to 14 mm (days needed to reach target backfat): from fitted model; for Rate (k, rate of backfat; fitted nonlinear parameter): model Y = 3.88e^kt, animal as experimental unit
Method: (§1) In test 4, 4172 hd of animals randomized to treatment and pen were housed in 48 pens, such that a study was conducted to assess the effect of ob genotype on fat growth, body weight growth, and carcass parameters; as well as any potential interaction with the beta andrenergic agonist Zilpaterol. […] 7.89 mm in the CT animals, and 7.63 mm in CC animals; with an overall statistical genotype effect of P=0.01. […] 494.6 lbs for CT animals, and 479.5 lbs for the CC animals; with an overall statistical genotype effect of P<0.01. Also importantly, the rate of fat change over time depended on ob genotype (Table 2).
(§2) Three groups of cattle were used to evaluate the effect of leptin genotype on back fat measurements in beef cattle. Originally two groups of cattle were fed and managed with the objective of evaluating the effect of a nutritional treatment on backfat measures and were randomly assigned to dietary treatment. The third experiment was fed and managed with the objective to evaluate 1) the effect the ob gene genotype on carcass parameters, 2) the effect of ob genotype on fat growth in the live animal, and 3) any potential interaction between the beta andrenergic agonist Zilpaterol Hydrochloride and ob genotype. The original experimental design for group 1 & 2 was a randomized complete block design (RCBD) with steers being randomly assigned to block, or experimental pen, dietary treatment was included in the final statistical model detailed below. […] Group 1 was composed of 319 steers and was of mixed breed, and of either European or British descent without any representation of Bos indicus bloodlines. The breeds represented in Group 1 were Hereford, Angus, Charolais, Simmental, and Limousin. The second group included 157 Charolais cross steers. All the cattle entered the finishing period when body weight was approximately 385 kg. Group 3 was composed of 4172 steers of mixed breed, and all cattle within a block were slaughtered on a single day.
Backfat was measured after 1, 55 and 139 days on feed for Group 1, 69, 111, and 120 days on feed for Group 2, and 1, 60, 104, and 129 days on feed for Group 3 using an Aloka 500V diagnostic ultrasound unit equipped with a 17.2 cm, 3.5 MHz linear array transducer (Overseas Monitor Corporation, Ltd., Richmond, B.C.) following the procedure described by Perkins et al., (1992). Internal calipers of the ultrasounds unit were used to measure back fat. Ultrasound images were recorded on a VHS tale (Panasonic AG-5200; Matsushita Electric of Canada, Mississauga, ON).
Backfat was analyzed with repeated measurements at 1, 55 and 139 days on feed for Group 1, 69, 111, and 120 days on feed for Group 2, and 1, 60, 104, and 129 days on feed for Group 3 using the MIXED procedure of SAS (Wang and Goodewardene, 2004). The following model was used: […]=μ+ρi+αj+λκ+βl+(αβ)jl+(λβ)kl+eijkl. Where Yijkl is the observation for the jth treatment ration or drug status within the ith block at the kth measurement, μ is the overall mean, ρi is the fixed effect of the ith block, aj is the fixed effect of the jth treatment ration, λk is the fixed effect of the kth measurement, βl is the fixed effect for leptin genotype (GENO) and eijkl, is the normally identical and independently distributed error term. The interaction between leptin genotype and diet, (αβ)jl, and time of measurement (λβ)kl, was also tested. A heterogeneous autoregressive-one covariance structure was utilized in analysis of backfat. Least square means and standard errors for body weight and back fat were determined using the ESTIMATE statement in PROC MIXED. The SLICE option was used to estimate least square means of GENO on days of measurements with the DIFF option being used to detect differences. Significance for the main effect of GENO and pairwise comparisons was declared at P<0.05 and trends are noted P<0.10. […]

[2] = Test 4 / Group 3 feedlot study: body weight growth of steers by leptin (ob) genotype and drug status; assay type: in vivo, cattle (steers of mixed breed); conditions: Drug group; for BW, lbs d 1: 1st measure; for BW, lbs d 1 / BW, lbs d 2 / BW, lbs d 3: before drug; for BW, lbs d 2: 2nd measure; for BW, lbs d 3: 3rd measure; for BW, lbs d 4: 4th measure, after drug
Method: as §1, §2
Backfat was analyzed with repeated measurements at 1, 55 and 139 days on feed for Group 1, 69, 111, and 120 days on feed for Group 2, and 1, 60, 104, and 129 days on feed for Group 3 using the MIXED procedure of SAS (Wang and Goodewardene, 2004). The following model was used: […]=μ+ρi+αj+λκ+βl+(αβ)jl+(λβ)kl+eijkl. Where Yijkl is the observation for the jth treatment ration or drug status within the ith block at the kth measurement, μ is the overall mean, ρi is the fixed effect of the ith block, aj is the fixed effect of the jth treatment ration, λk is the fixed effect of the kth measurement, βl is the fixed effect for leptin genotype (GENO) and eijkl, is the normally identical and independently distributed error term. The interaction between leptin genotype and diet, (αβ)jl, and time of measurement (λβ)kl, was also tested. A heterogeneous autoregressive-one covariance structure was utilized in analysis of backfat. Least square means and standard errors for body weight and back fat were determined using the ESTIMATE statement in PROC MIXED. The SLICE option was used to estimate least square means of GENO on days of measurements with the DIFF option being used to detect differences. Significance for the main effect of GENO and pairwise comparisons was declared at P<0.05 and trends are noted P<0.10. […] Within each group of cattle retrospective exponential models were fitted to the longitudinal measurements of back fat as described by Brethour (2000). The NLIN procedure of SAS was used to fit the nonlinear exponential function Y=Ae^(kt), where Y=projected backfat, A=the initial backfat, k=rate of increase, and t=time in days.
In test 4, 4172 hd of animals randomized to treatment and pen were housed in 48 pens, such that a study was conducted to assess the effect of ob genotype on fat growth, body weight growth, and carcass parameters; as well as any potential interaction with the beta andrenergic agonist Zilpaterol. […]

[3] = administration of exogenous leptin; mice, chickens, pigs and sheep; cited from earlier work

For CC(C)N[C@@H]1CCn2c(=O)[nH]c3cccc(c32)[C@H]1O.Cl (racemic) [Drug, Zilpaterol Hydrochloride], the “AFG, mm/d (Average Daily fat gain in millimeters)” value (from here on “AFG, mm/d”) ([1]; CC Genotype) was 0.051 mm/d, the “Fat CH, mm: Backfat change before and after drug, difference between 3rd and 4th measure” value ([1]; CC Genotype) was 1.24 mm and the “Fat CH, mm: Backfat change, difference between 1st and 4th measure” value ([1]; CC Genotype) was 7.30 mm. For the same compound, the “Rate, 10-12” value ([1]; CC Genotype) was 0.0071, the “Backfat, mm d 1” value ([1]; CC Genotype) was 3.46 mm and the “Backfat, mm d 2” value ([1]; CC Genotype) was 7.44 mm. The “Backfat, mm d 3” value ([1]; CC Genotype) was 9.60 mm, the “Backfat, mm d 4” value ([1]; CC Genotype) was 10.7 mm and the “d to 10 mm (days needed to reach target backfat)” value (from here on “d to 10 mm”) ([1]; CC Genotype) was 144 days. The “d to 12 mm (days needed to reach target backfat)” value (shortened to “d to 12 mm”) ([1]; CC Genotype) was 170 days, the “d to 14 mm (days needed to reach target backfat)” value (“d to 14 mm” below) ([1]; CC Genotype) was 192 days and the “Rate (k, rate of backfat; fitted nonlinear parameter)” value ([1]; CC Genotype) was 0.0069^a. The “AFG, mm/d” value ([1]; CT Genotype) was 0.053 mm/d, the “Fat CH, mm: Backfat change before and after drug, difference between 3rd and 4th measure” value ([1]; CT Genotype) was 1.35 mm and the “Fat CH, mm: Backfat change, difference between 1st and 4th measure” value ([1]; CT Genotype) was 7.56 mm. The “Rate, 10-12” value ([1]; CT Genotype) was 0.0072, the “Backfat, mm d 1” value ([1]; CT Genotype) was 3.50 mm and the “Backfat, mm d 2” value ([1]; CT Genotype) was 7.74 mm. For the same compound, the “Backfat, mm d 3” value ([1]; CT Genotype) was 9.77 mm, the “Backfat, mm d 4” value ([1]; CT Genotype) was 11.0 mm and the “d to 10 mm” value ([1]; CT Genotype) was 135 days. For the same compound, the “d to 12 mm” value ([1]; CT Genotype) was 160 days, the “d to 14 mm” value ([1]; CT Genotype) was 182 days and the “Rate (k, rate of backfat; fitted nonlinear parameter)” value ([1]; CT Genotype, Hydrochloride) was 0.0077^1 and 0.0071^1. For the same compound, the “AFG, mm/d” value ([1]; TT Genotype) was 0.054 mm/d, the “Fat CH, mm: Backfat change before and after drug, difference between 3rd and 4th measure” value ([1]; TT Genotype) was 1.17 mm and the “Fat CH, mm: Backfat change, difference between 1st and 4th measure” value ([1]; TT Genotype) was 7.71 mm. For the same compound, the “Rate, 10-12” value ([1]; TT Genotype) was 0.0073, the “Backfat, mm d 1” value ([1]; TT Genotype) was 3.62 mm and the “Backfat, mm d 2” value ([1]; TT Genotype) was 7.98 mm. The “Backfat, mm d 3” value ([1]; TT Genotype) was 10.26 mm, the “Backfat, mm d 4” value ([1]; TT Genotype) was 11.3 mm and the “d to 10 mm” value ([1]; TT Genotype) was 126 days. For the same compound, the “d to 12 mm” value ([1]; TT Genotype) was 151 days, the “d to 14 mm” value ([1]; TT Genotype) was 173 days and the “Rate (k, rate of backfat; fitted nonlinear parameter)” value ([1]; TT Genotype) was 0.0075^bc. The “ADG, lbs/d (Average daily live bodyweight gain in pounds)” value (from here on “ADG, lbs/d”) ([2]; CC Genotype) was 3.51 lbs/d, the “BWCH, lbs: Body weight change before and after drug, difference between 3rd and 4th measure” value ([2]; CC Genotype) was 72.1 lbs and the “BWCH, lbs: Body weight change, difference between 1st and 4th measure” value ([2]; CC Genotype) was 500.5 lbs. For the same compound, the “BW, lbs d 1” value ([2]; CC Genotype) was 893.4 lbs, the “BW, lbs d 2” value ([2]; CC Genotype) was 1181.1 lbs and the “BW, lbs d 3” value ([2]; CC Genotype) was 1325.0 lbs. The “BW, lbs d 4” value ([2]; CC Genotype) was 1394.8 lbs, the “ADG, lbs/d” value ([2]; CT Genotype) was 3.64 lbs/d and the “BWCH, lbs: Body weight change before and after drug, difference between 3rd and 4th measure” value ([2]; CT Genotype) was 93.8 lbs. For the same compound, the “BWCH, lbs: Body weight change, difference between 1st and 4th measure” value ([2]; CT Genotype) was 518.9 lbs, the “BW, lbs d 1” value ([2]; CT Genotype) was 890.3 lbs and the “BW, lbs d 2” value ([2]; CT Genotype) was 1197.3 lbs. For the same compound, the “BW, lbs d 3” value ([2]; CT Genotype) was 1317.1 lbs, the “BW, lbs d 4” value ([2]; CT Genotype) was 1407.6 lbs and the “ADG, lbs/d” value ([2]; TT Genotype) was 3.60 lbs/d. For the same compound, the “BWCH, lbs: Body weight change before and after drug, difference between 3rd and 4th measure” value ([2]; TT Genotype) was 75.8 lbs, the “BWCH, lbs: Body weight change, difference between 1st and 4th measure” value ([2]; TT Genotype) was 512.4 lbs and the “BW, lbs d 1” value ([2]; TT Genotype) was 890.6 lbs. For the same compound, the “BW, lbs d 2” value ([2]; TT Genotype) was 1191.9 lbs, the “BW, lbs d 3” value ([2]; TT Genotype) was 1330.0 lbs and the “BW, lbs d 4” value ([2]; TT Genotype) was 1399.0 lbs.

In the case of “leptin: 16-kDa adipocyte-specific polypeptide encoded by the ob (obese) gene”, the body mass [3] is listed as “dramatically reduces” and the feed intake [3] is listed as “dramatically reduces”.
